Data from US20240382483A1, “HETEROCYCLIC EGFR INHIBITORS FOR USE IN THE TREATMENT OF CANCER” (Blueprint Medicines Corporation, priority 2021, published 2024).
Like-named read-outs stand apart in the source and are kept apart here.

Tests used:
[1] = molecular target: T1, EGFR (L858R T790M C797S) (Homo sapiens, UniProt P00533, C797S/L858R/T790M); assay: Biochemical EGFR inhibition assay (Caliper mobility shift), EGFR LRTMCS; conditions: LRTMCS (PH) IC50 (nM) @ 1 mM ATP (Num), EGFR LRTMCS mutant
T1 construct: purchased SignalChem E10-122VG
Procedure: Reactions proceeded until between 10% to 20% total peptides were phosphorylated at room temperature (25° C.) and were terminated with 35 mM 2,2′,2″,2′″-(ethane-1,2-diyldinitrilo)tetraacetic acid (EDTA). Product was detected using the Caliper mobility shift detection method where the phosphorylated peptide (product) and substrate were electrophoretically separated and measured. Percent activity was plotted against log concentration of compound and points to generate an apparent IC50.

[2] = molecular target: T2, intracellular phosphorylation of EGFR in NCI-H1975 cell line that harbors the EGFR L858R T790M mutations (Homo sapiens, UniProt P00533, L858R/T790M); assay: NCI-H1975 pEGFR AlphaLISA assay; format: cell-based; conditions: NCI-H1975 cells (EGFR L858R T790M), p-EGFR (Tyr1068), 4-5 hours incubation
T2 construct: NCI-H1975 cell line that harbors the EGFR L858R T790M mutations (ATCC, CRL-5908); host or cells: NCI-H1975
Procedure: On the next day, the test compounds and DMSO control were added into H1975 cell plate followed by incubation at 37C/5% CO2 for 4-5 hours. […] Then 5 μL of a donor bead mix was added to each well followed by overnight incubation at room temperature in dark. On the next day, the plate was read at a compatible plate reader to obtain pEGFR signal. Percent of pEGFR inhibition was plotted against log concentration of compounds to generate IC50 values.

[3] = read-out: Ext pEGFR H1975 GMean IC50 (nM) Protocol: @Pharmaron AlphaLISA (Num)

T1 sequence (P00533 25-1210 T790M/C797S/L858R): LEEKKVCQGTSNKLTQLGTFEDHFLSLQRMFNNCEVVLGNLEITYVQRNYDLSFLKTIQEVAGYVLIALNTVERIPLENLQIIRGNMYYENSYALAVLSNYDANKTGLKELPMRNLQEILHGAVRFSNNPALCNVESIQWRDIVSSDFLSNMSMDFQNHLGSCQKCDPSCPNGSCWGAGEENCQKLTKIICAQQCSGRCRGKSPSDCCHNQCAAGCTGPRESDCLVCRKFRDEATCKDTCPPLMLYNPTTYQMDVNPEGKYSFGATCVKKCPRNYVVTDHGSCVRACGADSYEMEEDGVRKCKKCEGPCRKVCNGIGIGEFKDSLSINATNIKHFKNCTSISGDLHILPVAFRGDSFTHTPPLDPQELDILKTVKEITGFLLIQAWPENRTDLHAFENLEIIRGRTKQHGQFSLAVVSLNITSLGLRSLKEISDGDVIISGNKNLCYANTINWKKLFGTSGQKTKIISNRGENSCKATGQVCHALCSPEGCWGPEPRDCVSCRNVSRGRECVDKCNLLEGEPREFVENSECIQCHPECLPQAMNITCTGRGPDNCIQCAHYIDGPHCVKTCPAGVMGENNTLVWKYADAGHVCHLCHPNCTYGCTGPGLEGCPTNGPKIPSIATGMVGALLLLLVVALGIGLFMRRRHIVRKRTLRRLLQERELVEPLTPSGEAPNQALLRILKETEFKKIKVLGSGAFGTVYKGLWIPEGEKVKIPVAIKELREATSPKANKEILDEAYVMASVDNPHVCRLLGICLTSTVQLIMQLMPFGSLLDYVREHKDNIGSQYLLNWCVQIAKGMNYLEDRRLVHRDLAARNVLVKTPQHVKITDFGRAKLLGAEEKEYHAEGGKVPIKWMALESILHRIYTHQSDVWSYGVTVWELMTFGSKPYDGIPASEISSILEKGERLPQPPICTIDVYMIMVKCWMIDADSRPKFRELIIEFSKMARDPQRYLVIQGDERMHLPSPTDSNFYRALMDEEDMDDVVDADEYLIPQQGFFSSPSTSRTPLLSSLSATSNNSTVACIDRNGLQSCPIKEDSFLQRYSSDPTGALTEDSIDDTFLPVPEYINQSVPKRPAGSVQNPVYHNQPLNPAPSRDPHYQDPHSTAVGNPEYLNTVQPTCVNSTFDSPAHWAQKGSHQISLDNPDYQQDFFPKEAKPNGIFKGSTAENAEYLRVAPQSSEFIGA
T2 sequence (P00533 25-1210 T790M/L858R): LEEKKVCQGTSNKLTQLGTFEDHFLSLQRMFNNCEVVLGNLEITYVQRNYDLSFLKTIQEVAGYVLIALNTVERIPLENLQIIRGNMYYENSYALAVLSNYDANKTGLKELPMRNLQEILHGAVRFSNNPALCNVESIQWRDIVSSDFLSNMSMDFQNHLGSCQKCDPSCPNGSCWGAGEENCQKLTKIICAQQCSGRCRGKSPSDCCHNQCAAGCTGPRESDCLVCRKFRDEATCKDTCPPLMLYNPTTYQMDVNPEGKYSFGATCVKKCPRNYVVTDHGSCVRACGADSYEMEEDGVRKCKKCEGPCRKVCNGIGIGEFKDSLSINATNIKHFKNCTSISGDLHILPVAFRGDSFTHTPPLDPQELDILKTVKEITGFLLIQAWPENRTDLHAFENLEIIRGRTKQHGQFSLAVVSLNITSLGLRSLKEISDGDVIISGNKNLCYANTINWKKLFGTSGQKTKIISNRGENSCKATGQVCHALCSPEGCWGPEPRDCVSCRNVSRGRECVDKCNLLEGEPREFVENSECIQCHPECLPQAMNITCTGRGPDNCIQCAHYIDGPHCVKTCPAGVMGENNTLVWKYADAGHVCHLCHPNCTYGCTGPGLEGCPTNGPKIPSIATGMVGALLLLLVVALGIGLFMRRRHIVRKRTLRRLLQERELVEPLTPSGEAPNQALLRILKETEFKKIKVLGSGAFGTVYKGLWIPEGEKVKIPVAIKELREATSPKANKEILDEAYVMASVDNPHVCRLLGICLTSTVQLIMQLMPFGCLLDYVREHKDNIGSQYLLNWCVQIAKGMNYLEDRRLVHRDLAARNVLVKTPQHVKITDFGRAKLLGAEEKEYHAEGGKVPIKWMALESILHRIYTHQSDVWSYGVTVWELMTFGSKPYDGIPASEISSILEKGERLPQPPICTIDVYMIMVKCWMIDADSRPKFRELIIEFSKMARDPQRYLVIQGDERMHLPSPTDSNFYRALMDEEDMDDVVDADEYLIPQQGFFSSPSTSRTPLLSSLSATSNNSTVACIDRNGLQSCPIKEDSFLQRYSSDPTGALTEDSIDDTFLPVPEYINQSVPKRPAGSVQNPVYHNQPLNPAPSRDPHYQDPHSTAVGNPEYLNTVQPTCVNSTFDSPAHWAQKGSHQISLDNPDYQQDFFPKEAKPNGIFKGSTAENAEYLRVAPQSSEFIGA

Row | SMILES | IC50 [1] | IC50 [2, 3] | IC50 ([2]; Ext pEGFR H1975 GMean IC50 (nM) Protocol: @Pharmaron AlphaLISA (Num))
1 | CC(C)c1cnc(N2CC3(CCS3(=O)=O)C2)c2cnc(Nc3ccnc(N4CC[C@@H](O)[C@@](C)(F)C4)n3)cc12 [Example 98, 6-(6-((2-((3S,4R)-3-fluoro-4-hydroxy-3-methylpiperidin-1-yl)pyrimidin-4-yl)amino)-4-isopropyl-2,7-naphthyridin-1-yl)-1-thia-6-azaspiro[3.3]heptane 1,1-dioxide] | < 15 nM | 10 to 20 nM | 
2 | C[C@@H]1CCN1c1ncc([C@@H](C)OCC2COC2)c2cc(Nc3ccnc(N4CC[C@@H](O)[C@@](C)(F)C4)n3)ncc12 (single isomer, unassigned) [Example 183, (3S,4R)-3-fluoro-3-methyl-1-(4-((8-((R)-2-methylazetidin-1-yl)-5-((R)-1-(oxetan-3-ylmethoxy)ethyl)-2,7-naphthyridin-3-yl)amino)pyrimidin-2-yl)piperidin-4-ol or (3S,4R)-3-fluoro-3-methyl-1-(4-((8-((R)-2-methylazetidin-1-yl)-5-((S)-1-(oxetan-3-ylmethoxy)ethyl)-2,7-naphthyridin-3-yl)amino)pyrimidin-2-yl)piperidin-4-ol] | 30 to 100 nM | > 50 nM | 
3 | CC(C)c1cnc(N2CC[C@@]23CCN(C)C3)c2cnc(Nc3ccnc(N4CC[C@@H](O)[C@@](C)(F)C4)n3)cc12 (single isomer, unassigned) [Example 199, (3S,4R)-3-fluoro-1-(4-((5-isopropyl-8-((R)-6-methyl-1,6-diazaspiro[3.4]octan-1-yl)-2,7-naphthyridin-3-yl)amino)pyrimidin-2-yl)-3-methylpiperidin-4-ol or (3S,4R)-3-fluoro-1-(4-((5-isopropyl-8-((S)-6-methyl-1,6-diazaspiro[3.4]octan-1-yl)-2,7-naphthyridin-3-yl)amino)pyrimidin-2-yl)-3-methylpiperidin-4-ol] | < 15 nM | 20 to 30 nM | 
4 | CC(C)c1cnc(N2CC[C@H]2C)c2cnc(Nc3ccnc(N4CCC(O)(CO)CC4)n3)cc12 [Example 131, (R)-4-(hydroxymethyl)-1-(4-((5-isopropyl-8-(2-methylazetidin-1-yl)-2,7-naphthyridin-3-yl)amino)pyrimidin-2-yl)piperidin-4-ol] | 15 to 20 nM | > 50 nM | 
5 | Cc1nnc(-c2cnc(C(C)C)c3cc(Nc4ccnc(N5CC[C@@H](O)[C@@](C)(F)C5)n4)ncc23)o1 [Example 7, (3S,4R)-3-fluoro-1-(4-((5-isopropyl-8-(5-methyl-1,3,4-oxadiazol-2-yl)-2,6-naphthyridin-3-yl)amino)pyrimidin-2-yl)-3-methylpiperidin-4-ol] | 15 to 20 nM | > 50 nM | 
6 | CC(C)c1cnc(N2CCC23CN(C)C3)c2cnc(Nc3ccnc(N4CCC5(CCO5)CC4)n3)cc12 [Example 116, N-(2-(1-oxa-7-azaspiro[3.5]nonan-7-yl)pyrimidin-4-yl)-5-isopropyl-8-(6-methyl-1,6-diazaspiro[3.3]heptan-1-yl)-2,7-naphthyridin-3-amine] | 20 to 30 nM | > 50 nM | 
7 | COP(=O)(CC1CN(c2ncc(C(C)C)c3cc(Nc4ccnc(N5CC[C@@H](O)[C@@](C)(F)C5)n4)ncc23)C1)OC [Example 96, dimethyl ((1-(6-((2-((3S,4R)-3-fluoro-4-hydroxy-3-methylpiperidin-1-yl)pyrimidin-4-yl)amino)-4-isopropyl-2,7-naphthyridin-1-yl)azetidin-3-yl)methyl)phosphonate] | 20 to 30 nM |  | 20 to 30 nM
8 | COC(=O)N1CC2(CCN2c2ncc(C(C)C)c3cc(Nc4ccnc(N5CC[C@@H](O)[C@@](C)(F)C5)n4)ncc23)C1 [Example 82, methyl 1-(6-((2-((3S,4R)-3-fluoro-4-hydroxy-3-methylpiperidin-1-yl)pyrimidin-4-yl)amino)-4-isopropyl-2,7-naphthyridin-1-yl)-1,6-diazaspiro[3.3]heptane-6-carboxylate] | 15 to 20 nM | 30 to 50 nM | 
9 | CCOc1cnc(N2CC[C@@H]2C)c2cnc(Nc3ccnc(N4CC[C@@H](O)[C@@](C)(F)C4)n3)cc12 (single isomer, unassigned) [Example 182, (3S,4R)-1-(4-((5-ethoxy-8-((S)-2-methylazetidin-1-yl)-2,7-naphthyridin-3-yl)amino)pyrimidin-2-yl)-3-fluoro-3-methylpiperidin-4-ol or (3S,4R)-1-(4-((5-ethoxy-8-((R)-2-methylazetidin-1-yl)-2,7-naphthyridin-3-yl)amino)pyrimidin-2-yl)-3-fluoro-3-methylpiperidin-4-ol] | 30 to 100 nM | > 50 nM | 

Now from value to molecule, other results behind:

Row | IC50 [1] | IC50 [2, 3] | SMILES | IC50 ([2]; Ext pEGFR H1975 GMean IC50 (nM) Protocol: @Pharmaron AlphaLISA (Num))
10 | < 15 nM | 10 to 20 nM | CC(C)c1ccc(N2C[C@H](O)[C@H]2C)c2cnc(Nc3ccnc(N4CC[C@@H](O)[C@@](C)(F)C4)n3)cc12 [Example 103, (3S,4R)-3-fluoro-1-(4-((8-((2R,3S)-3-hydroxy-2-methylazetidin-1-yl)-5-isopropylisoquinolin-3-yl)amino)pyrimidin-2-yl)-3-methylpiperidin-4-ol] | 
11 | < 15 nM | 20 to 30 nM | CC(C)c1cnc(N2CCC(F)(F)C2)c2cnc(Nc3ccnc(N4CC[C@@H](O)[C@@](C)(F)C4)n3)cc12 [Example 57, (3S,4R)-1-(4-((8-(3,3-difluoropyrrolidin-1-yl)-5-isopropyl-2,7-naphthyridin-3-yl)amino)pyrimidin-2-yl)-3-fluoro-3-methylpiperidin-4-ol] | 
12 | < 15 nM | 20 to 30 nM | CC(=O)N1CC(c2ccc(C(C)C)c3cc(Nc4ccnc(N5CC[C@@H](O)[C@@](C)(F)C5)n4)ncc23)C1 [Example 4, 1-(3-(3-((2-((3S,4R)-3-fluoro-4-hydroxy-3-methylpiperidin-1-yl)pyrimidin-4-yl)amino)-5-isopropylisoquinolin-8-yl)azetidin-1-yl)ethan-1-one] | 
13 | < 15 nM | 20 to 30 nM | CNC(=O)CC1CN(c2ncc(C(C)C)c3cc(Nc4ccnc(N5CC[C@@H](O)[C@@](C)(F)C5)n4)ncc23)C1 [Example 87, 2-(1-(6-((2-((3S,4R)-3-fluoro-4-hydroxy-3-methylpiperidin-1-yl)pyrimidin-4-yl)amino)-4-isopropyl-2,7-naphthyridin-1-yl)azetidin-3-yl)-N-methylacetamide] | 
14 | 30 to 100 nM | > 50 nM | CC(C)c1cnc(N2CC(CP(C)(C)=O)C2)c2cnc(Nc3ccnc(N4CC[C@@H](O)[C@@](C)(F)C4)n3)cc12 [Example 79, ((1-(6-((2-((3S,4R)-3-fluoro-4-hydroxy-3-methylpiperidin-1-yl)pyrimidin-4-yl)amino)-4-isopropyl-2,7-naphthyridin-1-yl)azetidin-3-yl)methyl)dimethylphosphine oxide] | 
15 | < 15 nM | 30 to 50 nM | CC(C)c1cnc(N2CC(C3COC3)C2)c2cnc(Nc3ccnc(N4CC[C@@H](O)[C@@](C)(F)C4)n3)cc12 [Example 101, (3S,4R)-3-fluoro-1-(4-((5-isopropyl-8-(3-(oxetan-3-yl)azetidin-1-yl)-2,7-naphthyridin-3-yl)amino)pyrimidin-2-yl)-3-methylpiperidin-4-ol] | 
16 | 20 to 30 nM | > 50 nM | CO[C@@H]1CCN(c2nccc(Nc3cc4c(C(C)C)ncc(N5C[C@H](O)[C@H]5C)c4cn3)n2)C[C@@H]1O (single isomer, unassigned) [Example 119, (3S,4R)-1-(4-((8-((2R,3S)-3-hydroxy-2-methylazetidin-1-yl)-5-isopropyl-2,6-naphthyridin-3-yl)amino)pyrimidin-2-yl)-4-methoxypiperidin-3-ol or (3R,4S)-1-(4-((8-((2R,3S)-3-hydroxy-2-methylazetidin-1-yl)-5-isopropyl-2,6-naphthyridin-3-yl)amino)pyrimidin-2-yl)-4-methoxypiperidin-3-ol] | 
17 | 20 to 30 nM | > 50 nM | CC(C)c1cnc(N2CCCC2)c2cnc(Nc3ccnc(N4CC[C@@H](O)[C@@](C)(F)C4)n3)cc12 [Example 45, (3S,4R)-3-fluoro-1-(4-((5-isopropyl-8-(pyrrolidin-1-yl)-2,7-naphthyridin-3-yl)amino)pyrimidin-2-yl)-3-methylpiperidin-4-ol] | 
18 | 15 to 20 nM | 30 to 50 nM | CC(C)c1cnc(-c2nc[nH]n2)c2cnc(Nc3ccnc(N4CC[C@@H](O)[C@@](C)(F)C4)n3)cc12 [Example 25, (3S,4R)-3-fluoro-1-(4-((5-isopropyl-8-(1H-1,2,4-triazol-3-yl)-2,7-naphthyridin-3-yl)amino)pyrimidin-2-yl)-3-methylpiperidin-4-ol] | 
19 | 15 to 20 nM | 10 to 20 nM | CC(C)c1cnc(N2CC[C@H](S(C)(=O)=O)C2)c2cnc(Nc3ccnc(N4CC[C@@H](O)[C@@](C)(F)C4)n3)cc12 [Example 75, (3S,4R)-3-fluoro-1-(4-((5-isopropyl-8-((S)-3-(methylsulfonyl)pyrrolidin-1-yl)-2,7-naphthyridin-3-yl)amino)pyrimidin-2-yl)-3-methylpiperidin-4-ol] | 
